# pIC50: −log10 of the molar value.
# Key:
# [1] = Assay for metabolic degradation; type: in vitro ADME; conditions: pH 7.6; pooled human liver microsomes, 37° C., microsomal protein 1 mg/ml, test compound 1 μM, NADPH 1 mM; read-out: half-life (t½) values for human liver microsomal metabolic degradation
# Experimental: Assay for Metabolic Degradation
# The metabolic degradation of the test compound is assayed at 37° C. with pooled human liver microsomes. The final incubation volume of 100 μl per time point contains TRIS buffer pH 7.6 at room temperature (0.1 M), magnesium chloride (5 mM), microsomal protein (1 mg/ml) and the test compound at a final concentration of 1 μM.
# Following a short preincubation period at 37° C., the reactions were initiated by addition of beta-nicotinamide adenine dinucleotide phosphate, reduced form (NADPH, 1 mM) and terminated by transferring an aliquot into solvent after different time points. Additionally, the NADPH-independent degradation was monitored in incubations without NADPH, terminated at the last time point. The quenched incubations are pelleted by centrifugation (10000 g, 5 min). An aliquot of the supernatant is assayed by LC-MS/MS for the amount of parent compound. The half-life (t ½) is determined by the slope of the semilogarithmic plot of the concentration-time profile.
# [2] = target: Recombinant human CETP (Homo sapiens (Human), UniProt P11597); assay: CETP in vitro assay (fluorometric, Roar Biomedical); type: biochemical; conditions: 3 hours at 37° C., compound concentrations between 1 nM and 30 μM, read-out: IC50 values for inhibition of CETP
# Recombinant human CETP, sequence (P11597 18-493): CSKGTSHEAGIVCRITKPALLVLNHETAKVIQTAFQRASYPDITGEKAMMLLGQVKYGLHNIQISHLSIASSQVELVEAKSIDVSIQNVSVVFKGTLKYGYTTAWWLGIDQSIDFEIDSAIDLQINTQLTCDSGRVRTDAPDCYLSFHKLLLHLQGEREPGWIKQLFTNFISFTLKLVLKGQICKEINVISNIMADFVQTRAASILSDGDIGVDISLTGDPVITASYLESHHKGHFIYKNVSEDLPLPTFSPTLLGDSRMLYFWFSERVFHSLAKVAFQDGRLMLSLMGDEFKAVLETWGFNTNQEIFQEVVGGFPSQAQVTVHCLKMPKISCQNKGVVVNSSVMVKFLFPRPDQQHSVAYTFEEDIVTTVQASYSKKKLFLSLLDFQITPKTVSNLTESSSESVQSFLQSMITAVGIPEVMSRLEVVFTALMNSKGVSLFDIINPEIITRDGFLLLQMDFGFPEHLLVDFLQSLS
# Experimental: CETP inhibitory activity of compounds of the present invention can be determined in a fluorometric assay purchased from Roar Biomedical, Inc. (New York, N.Y., USA). […] Recombinant human CETP was partially purified from medium conditioned by CETP expressing CHO cells. In a 384 well format 2.5 μl of compound solution in DMSO was combined with 2 μl of donor solution, 2 μl of acceptor solution and 0.8 μl of recombinant human CETP solution in a total volume of 100 μl with assay buffer and incubated for 3 hours at 37° C. The fluorescence intensity was measured at excitation wavelength of 485 nm and emission wavelength of 535 nm. IC50 values are calculated from dose effect curves from compound concentrations between 1 nM and 30 μM.
SMILES,half-life at 1 μM [1] [h],pIC50 [2]
"CC(C)c1nc2c(c3c1[C@@H](c1ccc(C(F)(F)F)cc1)OC31CCOCC1)[C@@H](O)CC1(CC1)C2 [Example 1, (3R,9S)-4-isopropyl-7,7-(ethan-1,2-diyl)-3-(4-(trifluoromethyl)phenyl)-2′,3′,5′,6,6′,7,8,9-octahydro-3H-spiro[furo[3,4-c]quinoline-1,4′-pyran]-9-ol]",> 2.17,7.82
CC(C)c1nc2c(c3c1[C@@H](c1ccc(C(F)(F)F)c(C#N)c1)OC31CCOCC1)[C@@H](O)CC1(CC1)C2 [Example 2],> 2.17,7.74
"COc1cc([C@H]2OC3(CCOCC3)c3c2c(C(C)C)nc2c3[C@@H](O)CC3(CC3)C2)ccc1C(F)(F)F [Example 3, (3R,9S)-4-isopropyl-7,7-(ethan-1,2-diyl)-3-(3-methoxy-4-(trifluoromethyl)phenyl)-2′,3,5′,6,6,7,8,9-octahydro-3H-spiro[furo[3,4-c]quinoline-1,4′-pyran]-9-ol]",–,7.96
CC(C)c1nc2c(c3c1[C@@H](c1ccc(C(F)(F)F)nc1)OC31CCOCC1)[C@@H](O)CC1(CC1)C2 [Example 4],–,7.05

# More lines, now with the values ahead:
half-life at 1 μM [1] [h],pIC50 [2],SMILES
0.95,8.05,"CC(C)c1nc2c(c3c1[C@@H](c1ccc(C(F)(F)F)cc1)OC31CCOCC1)[C@@H](O)CC1(CC1)[C@H]2O [Example 5, (3R,6R,9S)-4-isopropyl-7,7-(ethan-1,2-diyl)-3-(4-(trifluoromethyl)phenyl)-2′,3′,5′,6,6′,7,8,9-octahydro-3H-spiro[furo[3,4-c]quinoline-1,4′-pyran]-6,9-diol]"
–,7.37,"CC(C)c1nc2c(c3c1[C@@H](c1ccc(C(F)(F)F)c(C#N)c1)OC31CCOCC1)[C@@H](O)CC1(CC1)[C@H]2O [Example 6, 5-((3R,6R,9S)-6,9-dihydroxy-4-isopropyl-7,7-(ethan-1,2-diyl)-2′,3′,5′,6,6′,7,8,9-octahydro-3H-spiro[furo[3,4-c]quinoline-1,4′-pyran]-3-yl)-2-(trifluoromethyl)benzonitrile]"
–,7.96,"COc1cc([C@H]2OC3(CCOCC3)c3c2c(C(C)C)nc2c3[C@@H](O)CC3(CC3)[C@H]2O)ccc1C(F)(F)F [Example 7, (3R,6R,9S)-4-isopropyl-7,7-(ethan-1,2-diyl)-3-(3-methoxy-4-(trifluoromethyl)phenyl)-2′,3′,5′,6,6′,7,8,9-octahydro-3H-spiro[furo[3,4-c]quinoline-1,4′-pyran]-6,9-diol]"
> 2.17,–,"CC(C)c1nc2c(c3c1[C@@H](c1ccc(C(F)(F)F)nc1)OC31CCOCC1)[C@@H](O)CC1(CC1)[C@H]2O [Example 8, (3R,6R,9S)-4-isopropyl-7,7-(ethan-1,2-diyl)-3-(6-(trifluoromethyl)pyridin-3-yl)-2′,3′,5′,6,6′,7,8,9-octahydro-3H-spiro[furo[3,4-c]quinoline-1,4′-pyran]-6,9-diol]"
